# Assays:
# KRAS^G12V-GppNHp = target: T1, KRAS^G12V-GppNHp (Homo sapiens, UniProt P01116, G12V); assay: SPR binding to KRAS G12V-GppNHp; conditions: 100 μM, run in triplicate
# T1 construct: made in house; host or cells: E. coli (pGEX-2T; strain named only for the HRAS plasmids)
# Protocol: A BIAcore T100 (GE Healthcare) was used to screen the fragment library for RAS binders. A polyclonal goat anti-GST antibody (GE Healthcare) was immobilized on a CM5 sensor chip (GE Healthcare) by the amine coupling method. To immobilize the antibody on CM5 chip, the chip was first activated by injecting 100 µl mixture of 0.2 M EDC (N-ethyl-N-(dimethylaminopropyl) carbodiimide hydrochloride) and 0.05 M NHS (N-hydroxysuccinimide) at 10 µl/min flow rate. Furthermore, 100 µg/ml anti-GST antibody in 10 mM sodium acetate, pH 5.0 was injected at 5 µl/min for 900 s and immobilized until 20,000 ~ 25,000 RU. After immobilization the chip was immediately inactivated by injecting 1 M ethanolamine, pH 8.5 at 10 µl/min for 600 s. The chip was kept running in the HBS buffer (GE Healthcare) comprising 10 mM HEPES, pH 8.0, 150 mM NaCl. Of all, 5 µg/ml recombinant GST, GST-HRAS^G12V-GTPγS or GST-HRAS^G12V-GDP proteins were injected into flow cell Fc4, Fc2 and Fc3, respectively for trapping through the immobilized anti-GST antibody. The GST-HRAS^G12V-GTPγS, GST-KRAS^G12V-GppNHpp, or GST-HRAS^G12V-GDP proteins were injected at 5 µl/min for 900 s and usually reached approximately 2000–2500 RU. The GST was injected at same flow rate until about 1200–1350 RU which is 0.54 times less than the GST-HRAS^G12V-GTPγS or GST-HRAS-GDP capture amounts, taking into consideration relative molecular weights (GST, 26KDa, GST-RAS, 48KDa, respectively). Before fragment library screening, the running buffer was replaced by 20 mM Tris, pH 8, 150 mM NaCl, 5 mM MgCl2, 5% DMSO. DMSO solvent correction curves were generated by injecting the running buffers with serial concentrations of DMSO ranging from 4.5 to 6%. […] The individual compounds were injected at 30 µl for 60 s at 30 µl/min flow rate over flow cells Fc1, Fc2, Fc3 and Fc4. The captured GST and GST-RAS were removed from the chip by rinsing with 40 µl 10 mM glycine-HCl, pH 2.1 at 20 µl/min flow rate after every 48 compounds sequential injection. The chip was regenerated by injecting new GST and GST-RAS proteins as described above.
# HT1080 cells (NRAS^Q61K) = assay: Cell viability (CellTiterGlo), HT1080; type: cell-based, human; conditions: HT1080, 0–20 μM, up to 72 h
# Protocol: (§1) Fig. 5 Abd-7 results on RAS-dependent signalling pathways and cell viability. a, b DLD-1 (a) or H358 (b) cells were serum-starved for 24 h, incubated in mono-layer with Abd-7 in a range from 2, 5, 10 and 20 μM for 3 h and stimulated with EGF 10 min. Proteins were extracted and separated by SDS-PAGE and transferred to membranes for Western analysis with anti-pAKT, anti-pERK, anti-pan AKT and anti-pan ERK. Anti-cyclophilin B antibody was the loading control. Signal was developed using standard ECL. c–e Effects of compounds Abd-2, Abd-4, Abd-5, Abd-6, and Abd-7 on the viability of human cancer cells lines was assessed for a 2-D culture of DLD-1 (mutant KRAS^G13D) cells and HT1080 cells (mutant NRAS^Q61K). The cells were treated with a dose range from 0 μM to 20 μ and incubated for 72 h when cell viability was assessed using CellTitreGlo. […] Each experiment was repeated at least three times (a, b) and four times (c, d). Where error bars are presented, they correspond to mean values ± SD of biological repeats […]
# (§2) Cancer cell lines were in seeded in ViewPlates-96 microplates (PerkinElmer). DLD-1 cells were plated at 10,000 cells per well and HT1080 cells at 7500 cells per well and cultured in DMEM, high glucose, GlutaMAX media containing 10% FBS at 37 °C in 5% CO2 atmosphere. Cells were cultured overnight and the compounds (dissolved in DMSO and diluted to 0.2% DMSO) were added to the cells at concentrations ranging from 0 to 20 μM. The cells were incubated under standard culture conditions for either 24, 48 or 72 h. Cell viability was as quantitated using the CellTiterGlo Luminescent Cell Viability Assay (Promega) according to the manufacturer’s instructions to measure ATP generated by metabolically active cells. Luminescent signals were measured using an Envision 2103 Multilabel Microplate Reader (PerkinElmer). The luminescence signals obtained from the compound-treated cells were normalized against the signal for DMSO-only treated cells. The IC50 values, calculated from the 48 and 72 h CellTiterGlo data, were generated by non-linear regression using the software GraphPad Prism 7.00 for windows (GraphPad Inc).
# (§3) Supplementary Figure 7: The effect of Abd compounds on the viability of cancer cells The effect of the chemical series on the viability of human cancer cells lines DLD -1 (a colorectal cancer cell line with mutant KRAS
# (§4) ) and HT1080 (a fibrosarcoma cell line with
# (§5) ). The cells were treated with a dose range from […] of either
# (§6) Abd-2, Abd-4, Abd-5, Abd-6 and Abd-7 and incubated for 24 or 48 hours. Cell viability was assessed using CellTitreGlo . In each case, the data are normalized to cells treated with DMSO only. Panels a and b are DLD-1 viability and panels c and d are HT1080 viability.
# (§7) The IC50 for Abd-7 at 48 & 72 […]
# (§8) hours are shown in panel f. Each experiment was repeated at least four times ( a to d).
# (§9) Where error bars are presented, they correspond to mean values ± SD of biological repeats.
# (§10) (1 picture or pasted object on this page, not shown here)
# DLD-1 cells (KRAS^G13D) = assay: Cell viability (CellTiterGlo), DLD-1; type: cell-based, human; conditions: DLD-1, 0–20 μM, up to 72 h
# Protocol: as §1, §2, §3, §4, §5, §6, §7, §8, §9, §10
# RAS-effector PPI = assay: RAS biosensor BRET assay (partners not specified); type: cell-based, human
# Protocol: The BRET assay was carried out as described elsewhere. A total of 650,000 HEK293T were seeded in each well of a six well plate. Approximately, 24 h later, cells were transfected with an appropriated BRET-based RAS biosensor (i.e. RAS-effector) using Lipofectamine 2000 transfection reagent (Thermo-Fisher). Cells were detached 24 h later and washed with PBS and seeded in a white 96 well plate (clear bottom, PerkinElmer, cat#6005181) in OptiMEM no phenol red medium (Life Technologies) complemented with 4% FBS. Cells were left for 4 h at 37 °C before adding compounds. […] The final concentrations in the cells were 0, 5, 10 and 20 μM (therefore the intermediate 10X concentrations were 0, 50, 100 and 200 μM. Furthermore, 10 μl of 10X compounds were added in each well of the 96 well plate to 0, 5, 10 and 20 μM final concentrations (with final 0.2% DMSO each). Quadruplicates were performed for each point. Cells were left for an additional 20 h at 37 °C before the BRET2 signal reading directly after addition of Coelenterazine 400a substrate (10 μM final) to cells (Cayman Chemicals, cat#16157). BRET2 reading was carried out on an Envision instrument (2103 Multilabel Reader, PerkinElmer) with the BRET2 Dual Emission optical module (515 nm ± 30 and 410 nm ± 80; PerkinElmer).
# GST-HRAS^G12V-GDP = target: T2, GST-HRAS^G12V-GDP (Homo sapiens, UniProt P01112, G12V); assay: SPR binding to GDP-bound HRAS; conditions: 3 to 2000 μM range
# T2 construct: expression of HRAS (1-166) HRAS^G12V or KRAS^G12V cDNA cloned into the pGEX-2T vector; made in house; host or cells: E. coli C41(DE3)
# Protocol: (§11) A BIAcore T100 (GE Healthcare) was used to screen the fragment library for RAS binders. A polyclonal goat anti-GST antibody (GE Healthcare) was immobilized on a CM5 sensor chip (GE Healthcare) by the amine coupling method. To immobilize the antibody on CM5 chip, the chip was first activated by injecting 100 µl mixture of 0.2 M EDC (N-ethyl-N-(dimethylaminopropyl) carbodiimide hydrochloride) and 0.05 M NHS (N-hydroxysuccinimide) at 10 µl/min flow rate. Furthermore, 100 µg/ml anti-GST antibody in 10 mM sodium acetate, pH 5.0 was injected at 5 µl/min for 900 s and immobilized until 20,000 ~ 25,000 RU. After immobilization the chip was immediately inactivated by injecting 1 M ethanolamine, pH 8.5 at 10 µl/min for 600 s. The chip was kept running in the HBS buffer (GE Healthcare) comprising 10 mM HEPES, pH 8.0, 150 mM NaCl. Of all, 5 µg/ml recombinant GST, GST-HRAS^G12V-GTPγS or GST-HRAS^G12V-GDP proteins were injected into flow cell Fc4, Fc2 and Fc3, respectively for trapping through the immobilized anti-GST antibody. The GST-HRAS^G12V-GTPγS, GST-KRAS^G12V-GppNHpp, or GST-HRAS^G12V-GDP proteins were injected at 5 µl/min for 900 s and usually reached approximately 2000–2500 RU. […]
# GST-HRAS^G12V-GTPγS = target: T3, GST-HRAS^G12V-GTPγS (Homo sapiens, UniProt P01112, G12V); assay: SPR binding to immobilized GST-HRAS G12V-GTPγS
# T3 construct: expression of HRAS (1-166) HRAS^G12V or KRAS^G12V cDNA cloned into the pGEX-2T vector; made in house; host or cells: E. coli C41(DE3)
# Protocol: as §11
# The corresponding kinetic […], were determined using steady-state analysis of the compounds’ binding affinities, assuming 1:1 ligand-protein stoichiometry. […]
# [1] = target: T4, GST-HRAS^G12V-GTPγS-anti-RAS single chain Fv (scFv) (Homo sapiens, UniProt P01112, G12V); assay: Competitive SPR (cSPR) with anti-RAS scFv bound to HRAS; type: binding; conditions: 3 to 2000 μM range
# T4 construct: expression of HRAS (1-166) HRAS^G12V or KRAS^G12V cDNA cloned into the pGEX-2T vector; made in house; host or cells: E. coli C41(DE3)
# Protocol: For competitive SPR (cSPR) assays between anti-RAS scFv and candidate fragment binder, after immobilizing anti-GST polyclonal antibody was immobilized on CM5 sensor chip as described above, then 5 µg/ml GST-HRAS-GTPγS protein was injected at 5 µl/min for 900 s to flow cells Fc2 and 4 and 5 µg/ml GST-HRAS-GDP to Fc3. Following GST-HRAS capture on the flow cells, 5 µg/ml anti-RAS scFv Y6-204 was injected at 5 µl/min for 900 s only to Fc4 until reaching an additional 1500–1800 RU, which is theoretically when all GST-HRAS-GTPγS should be bound to anti-RAS scFv with 1:1 interaction stoichiometry. After completing anti-RAS scFv injection, the sensograms were confirmed to be stable (i.e. anti-RAS scFv was not dissociated from GST-HRAS-GTPγS on Fc4). […]
# Solubility = type: physicochemical
smiles,measurement,setting,value
NCC1COc2cc(Cl)ccc2O1 (centres unmarked) [Abd-3],binding to KRAS^G12V-GppNHp (SPR),KRAS^G12V-GppNHp,lower affinity than Abd-2
O=C(NC[C@@H]1COc2ccccc2O1)c1ccco1 [Abd-2b],binding to KRAS^G12V-GppNHp (SPR),KRAS^G12V-GppNHp,bind
O=C(NC[C@H]1COc2ccccc2O1)c1ccco1 [Abd-2a],binding to KRAS^G12V-GppNHp (SPR),KRAS^G12V-GppNHp,bind
CN(C)CCOc1ccc(C(=O)NCC2COc3ccccc3O2)cc1 (centres unmarked) [Abd-4],effect on cell viability,HT1080 cells (NRAS^Q61K),no effect on cell viability
same,effect on cell viability,DLD-1 cells (KRAS^G13D),no effect on cell viability
same,activity in the RAS biosensor BRET assay,RAS-effector PPI,do not show activity
"O=C(Nc1ccc2ccccc2n1)c1ccco1 [Abd-1, N-(2-quinolinyl)-2-furamide]",binding to GDP-bound form of HRAS (SPR),GST-HRAS^G12V-GDP,no binding
same,binding to GST-HRAS^G12V-GTPγS (SPR dose response),GST-HRAS^G12V-GTPγS; 3 to 2000 μM range,bound and bind
same,Kd,"GST-HRAS^G12V-GTPγS; SPR, estimated, single experimental analysis",> 370 µM
same,binding to HRAS^G12V in complex with anti-RAS scFv (cSPR),[1],no binding
same,solubility,Solubility,140 µM

# Source: paper PMC6085350, “Small molecule inhibitors of RAS-effector protein interactions derived using an intracellular antibody fragment” (Nature Communications, 2018)
